# Experiments:
# PDE3A = target: T1, PDE3A (Homo sapiens, UniProt Q14432); experiment: PDE enzyme  assay, PDE3A; assay type: biochemical
# T1 construct: purchased Eurofins Panlabs Discovery Services Taiwan, Ltd. (contract assay); host or cells: insect Sf9 cells
# Method: (§1) Enzyme assays for various subtypes of PDE (Table 1 and Figure 4) were conducted by Eurofins Panlabs Discovery Services Taiwan, Ltd. (New Taipei City, Taiwan). In the assays, five or six concentrations of nobiletin over five or six orders of magnitude were examined in experiments conducted in duplicate to determine the IC50 (concentration of nobiletin exerting half-maximal inhibition of control-specific activity). IC50 values were determined by nonlinear least squares regression analysis using MathIQTM (ID Business Solutions Ltd., Woking, UK). FAM-cAMP, FAM-cGMP (0.1 μM), and 100 μM [^3H]cGMP + cGMP were used for the substrate in the human recombinant insect Sf9 cells or Bovine retinal rod outer segments depending on the PDE subtype. The spectrofluorometric quantitation of fluorescein-AMP-IMAP, fluorescein-GMP-IMAP, or [^3H] guanosine was used depending on the PDE subtype. A known […] of each PDE was used as the positive control.
# PDE4B1 = target: T2, PDE4B1 (Homo sapiens, UniProt Q07343); experiment: PDE enzyme (kinase) assay, PDE4B1; assay type: biochemical
# T2 construct: purchased Eurofins Panlabs Discovery Services Taiwan, Ltd. (contract assay); host or cells: insect Sf9 cells
# T2 sequence (Q07343 whole entry): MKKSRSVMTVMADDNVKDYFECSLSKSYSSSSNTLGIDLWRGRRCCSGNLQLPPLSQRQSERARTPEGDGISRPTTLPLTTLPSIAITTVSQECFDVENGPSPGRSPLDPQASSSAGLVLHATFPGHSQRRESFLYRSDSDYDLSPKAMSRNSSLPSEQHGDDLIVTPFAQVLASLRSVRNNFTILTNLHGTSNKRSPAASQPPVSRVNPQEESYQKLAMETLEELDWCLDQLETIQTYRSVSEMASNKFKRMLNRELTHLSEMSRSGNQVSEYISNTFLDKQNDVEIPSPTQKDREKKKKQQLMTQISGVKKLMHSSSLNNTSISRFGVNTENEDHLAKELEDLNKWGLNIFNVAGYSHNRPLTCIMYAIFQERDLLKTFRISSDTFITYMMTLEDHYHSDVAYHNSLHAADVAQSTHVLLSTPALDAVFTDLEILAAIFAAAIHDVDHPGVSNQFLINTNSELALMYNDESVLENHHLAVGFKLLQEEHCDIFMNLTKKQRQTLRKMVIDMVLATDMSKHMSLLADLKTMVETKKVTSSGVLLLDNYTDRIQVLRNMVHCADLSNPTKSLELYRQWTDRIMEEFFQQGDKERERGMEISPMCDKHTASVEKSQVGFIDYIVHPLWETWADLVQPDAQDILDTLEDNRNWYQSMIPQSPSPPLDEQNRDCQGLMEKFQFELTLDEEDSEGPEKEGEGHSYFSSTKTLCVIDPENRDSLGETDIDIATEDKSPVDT
# Method: as §1
# Figure 4 PDE kinase assays and the acute clock gene expression changes by PDE4 inhibitor or ROR α/γ agonist. (A) Inhibitory effect of nobiletin on PDE4A1, 4B1, and 10A2. Various concentrations of nobiletin (1–100 μM) were used for IC50 determination (Table 1). Values represent the mean of two experiments. Positive controls were rolipram for PDE4A1 and 4B1 and papaverine for PDE10A2. […]
# PDE5A = target: T3, PDE5A (Homo sapiens, UniProt O76074); experiment: PDE enzyme  assay, PDE5A; assay type: biochemical
# T3 construct: purchased Eurofins Panlabs Discovery Services Taiwan, Ltd. (contract assay); host or cells: insect Sf9 cells
# Method: as §1
# PDE3 = test system: PDE3; parameters: method as in PMID 19906817; conditions: cited from earlier work
# T1 sequence (Q14432 whole entry): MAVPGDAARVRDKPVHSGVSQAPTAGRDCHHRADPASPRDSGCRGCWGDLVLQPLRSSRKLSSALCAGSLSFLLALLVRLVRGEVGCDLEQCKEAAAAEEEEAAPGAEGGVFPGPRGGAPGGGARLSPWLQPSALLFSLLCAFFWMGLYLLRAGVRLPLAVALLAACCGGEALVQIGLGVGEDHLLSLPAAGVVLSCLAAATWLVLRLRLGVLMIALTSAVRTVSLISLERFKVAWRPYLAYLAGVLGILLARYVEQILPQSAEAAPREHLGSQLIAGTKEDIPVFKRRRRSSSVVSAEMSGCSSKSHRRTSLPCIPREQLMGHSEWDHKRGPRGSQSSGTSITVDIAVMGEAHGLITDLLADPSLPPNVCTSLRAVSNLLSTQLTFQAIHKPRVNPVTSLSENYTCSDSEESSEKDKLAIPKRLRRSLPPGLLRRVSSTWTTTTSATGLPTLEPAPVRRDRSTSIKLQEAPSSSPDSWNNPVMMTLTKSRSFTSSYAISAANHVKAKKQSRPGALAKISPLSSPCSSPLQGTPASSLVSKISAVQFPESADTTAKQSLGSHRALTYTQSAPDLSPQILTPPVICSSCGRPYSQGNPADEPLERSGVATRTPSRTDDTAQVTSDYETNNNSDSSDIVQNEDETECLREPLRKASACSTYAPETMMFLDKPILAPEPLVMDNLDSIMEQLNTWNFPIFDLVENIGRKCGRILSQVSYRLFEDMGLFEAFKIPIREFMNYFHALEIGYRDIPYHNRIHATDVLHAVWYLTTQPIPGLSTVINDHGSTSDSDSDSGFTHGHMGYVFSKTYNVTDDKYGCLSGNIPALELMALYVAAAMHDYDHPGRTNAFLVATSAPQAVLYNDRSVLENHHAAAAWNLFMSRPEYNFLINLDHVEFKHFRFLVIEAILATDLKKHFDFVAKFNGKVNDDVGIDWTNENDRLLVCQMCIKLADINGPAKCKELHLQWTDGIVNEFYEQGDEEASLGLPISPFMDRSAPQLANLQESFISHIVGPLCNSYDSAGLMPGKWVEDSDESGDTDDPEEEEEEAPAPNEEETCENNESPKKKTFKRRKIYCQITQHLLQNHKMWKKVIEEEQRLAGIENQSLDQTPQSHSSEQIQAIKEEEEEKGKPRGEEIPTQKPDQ
smiles,measurement,setting,value
COc1ccc(-c2cc(=O)c3c(OC)c(OC)c(OC)c(OC)c3o2)cc1OC [nobiletin],IC50,PDE3A,16 µM
same,IC50,"PDE4B1; IC50, PDE4B1, bound stated in the discussion",≤ 6.03 µM
same,IC50,"PDE4B1; IC50 Dose, PDE4B1, duplicate",6.03 µM
same,IC50,PDE5A,14.8 µM
same,IC50,PDE3,10.4 µM
